Measured values taken from PubChem BioAssay (NCI).
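Five compound concentrations were applied to cells in 96-well plates for 48 hours; endpoints were derived by simple linear interpolation of the resulting dose-response curve. GI50 = concentration required for 50% inhibition of growth. TGI denotes the concentration required for complete inhibition of growth.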

How the values were obtained:
Assay in all cases: NCI anticancer screen, dose series, 48 h
A498 renal = system: A498 renal
CAKI-1 renal = system: CAKI-1 renal
HL-60(TB) leukemia = system: HL-60(TB) leukemia
HOP-62 NSCLC = system: HOP-62 NSCLC
MDA-MB-435 = system: MDA-MB-435
NCI/ADR-RES ovarian = system: NCI/ADR-RES ovarian
T-47D breast = system: T-47D breast
UACC-257 melanoma = system: UACC-257 melanoma
UACC-62 melanoma = system: UACC-62 melanoma
HOP-92 NSCLC = system: HOP-92 NSCLC

Row | Structure (SMILES) | GI50 (A498 renal) | TGI (A498 renal) | GI50 (CAKI-1 renal) | TGI (CAKI-1 renal) | GI50 (HL-60(TB) leukemia) | TGI (HL-60(TB) leukemia) | GI50 (HOP-62 NSCLC) | TGI (HOP-62 NSCLC) | GI50 (MDA-MB-435) | TGI (MDA-MB-435) | GI50 (NCI/ADR-RES ovarian) | TGI (NCI/ADR-RES ovarian) | GI50 (T-47D breast) | TGI (T-47D breast) | GI50 (UACC-257 melanoma) | TGI (UACC-257 melanoma) | GI50 (UACC-62 melanoma) | TGI (UACC-62 melanoma) | TGI (HOP-92 NSCLC) | GI50 (HOP-92 NSCLC)
1 | COc1ccc(C(=O)C(CN(C)C)c2ccccc2)cc1 (stereo not given) | 8.11 µM | 20.5 µM | 2.08 µM | 7.82 µM | 5.54 µM | > 100 µM | 10.9 µM | 23.6 µM | 2.83 µM | 11.4 µM | 2.7 µM | 6.97 µM | 2.75 µM | 9.01 µM | 2.39 µM | 10.7 µM | 2.81 µM | 8.22 µM | – | –
2 | COC(=O)C1=C(c2cc(OC)c(OC)c(OC)c2)OC(c2cc(OC)c(OC)c(OC)c2)C1 (stereo not given) | – | 51.4 µM | – | 60.9 µM | – | – | – | > 100 µM | – | – | – | – | – | – | – | 51.5 µM | – | 27.5 µM | 36.5 µM | –
3 | COc1cccc(C2N3CCCCC3[C@@H]3c4[nH]c5ccccc5c4CCN23)c1OC (stereo not given in full) | – | 23.8 µM | – | 33.5 µM | – | 31.7 µM | – | 29.4 µM | – | – | – | – | – | – | – | 30.1 µM | – | 24 µM | 31.6 µM | –
4 | C/C(CC(=O)Nc1cc(Cl)c(Cl)cc1Cl)=N\NS(=O)(=O)c1ccc(C)cc1 | – | > 100 µM | – | – | – | 62.9 µM | – | > 100 µM | – | – | – | – | – | – | – | > 100 µM | – | 75.9 µM | 59 µM | –
5 | CCOC(=O)CCC(NC(=O)c1ccc(Nc2nc3cc(N)cc(N)c3nc2-c2ccccc2)cc1)C(=O)OCC (stereo not given) | – | – | > 52.6 µM | > 100 µM | 9.62 µM | 50.7 µM | > 44.1 µM | > 63 µM | 29.9 µM | > 60.4 µM | 35 µM | > 79.1 µM | 6.7 µM | > 22.1 µM | 6.04 µM | 13.7 µM | 12.6 µM | > 38.2 µM | 29.7 µM | 10.8 µM
6 | C=C1C(=O)O[C@H]2[C@H]1CC/C(COC(=O)c1ccc(Br)cc1)=C\CC[C@@]1(C)O[C@@H]21 | 11 µM | 23.7 µM | – | – | 0.664 µM | 3.37 µM | – | – | 1.79 µM | 3.5 µM | 2.34 µM | 8.68 µM | – | – | 1.65 µM | 3.35 µM | 1.48 µM | 2.94 µM | 3.29 µM | 1.72 µM
7 | O=[P+](O)c1cc2c3ccccc3ccc2c2ccccc12 | – | – | – | – | – | > 100 µM | – | > 100 µM | – | – | – | – | – | – | – | – | – | > 100 µM | – | –
8 | Nc1ccc(C(=O)N/C(=C\c2ccc3c(c2)OCO3)c2nc3ccc4c(c3[nH]2)C(=O)c2ccccc2C4=O)cc1 | – | 93.9 µM | – | > 100 µM | – | – | – | > 100 µM | – | – | – | – | – | – | – | > 100 µM | – | > 100 µM | 95.7 µM | –
9 | COc1ccccc1NC(=O)NS(=O)(=O)c1ccccc1 | – | – | – | > 100 µM | – | > 100 µM | – | > 100 µM | – | – | – | – | – | – | – | > 100 µM | – | – | > 100 µM | –
10 | CC(=O)OC1CC2C(C)(C)C(=O)C=C[C@]2(C)C2CCC3(C)C(=CCC3[C@H](CO)C[C@H](O)C(=O)C(C)(C)O)[C@]12C (stereo not given in full) | – | 30.7 µM | – | 55.3 µM | – | 43.8 µM | – | – | – | – | – | – | – | – | – | 30.8 µM | – | 31.6 µM | – | –
11 | C=CCN1C(=O)C/C(=C2/CCC(=O)N2CC=C)C1=O | – | > 100 µM | – | > 100 µM | – | > 100 µM | – | > 100 µM | – | – | – | – | – | – | – | > 100 µM | – | > 100 µM | > 100 µM | –
12 | c1cc[c]([Sn]([O]c2cccc3cccnc23)([c]2ccccc2)[c]2ccccc2)cc1 | – | – | 0.0188 µM | 0.0852 µM | – | – | 0.0482 µM | 0.145 µM | – | – | – | – | – | – | 0.0334 µM | 0.117 µM | < 0.01 µM | 0.0188 µM | 0.0575 µM | 0.0172 µM
13 | CCN1CCN(c2nc(NNC(=O)c3cccc(OC)c3)nc(N3CCN(C(c4ccccc4)c4ccccc4)CC3)n2)CC1 | 3.73 µM | 15.3 µM | 1.54 µM | 3.1 µM | – | – | 5.76 µM | 23.5 µM | 1.7 µM | 3.19 µM | 2.42 µM | 7.12 µM | 2.27 µM | 7.18 µM | 2.18 µM | 4.99 µM | 1.84 µM | 3.71 µM | 3.33 µM | 1.29 µM
14 | O=C1/C(=C/c2ccc(Cl)cc2)COc2ccc(Br)cc21 | – | > 100 µM | – | – | – | > 100 µM | – | > 100 µM | – | – | – | – | – | – | – | > 100 µM | – | – | > 100 µM | –
15 | Cc1ccc(S(=O)(=O)N/N=C/CN2C(=O)c3ccccc3C2=O)cc1 | – | > 100 µM | – | > 100 µM | – | > 100 µM | – | > 100 µM | – | – | – | – | – | – | – | > 100 µM | – | > 100 µM | – | –
16 | Cc1nc(=O)n2c(c1C(=O)Nc1ccc(Cl)cc1)NCCC2 | – | – | – | > 100 µM | – | > 100 µM | – | > 100 µM | – | – | – | – | – | – | – | – | – | > 100 µM | > 100 µM | –
17 | CC1CC(=O)CC[C@@H]1OCc1ccccc1 (stereo not given in full) | – | > 100 µM | – | > 100 µM | – | > 100 µM | – | > 100 µM | – | – | – | – | – | – | – | > 100 µM | – | > 100 µM | – | –
18 | COc1ccc(CN[C@H]2CCc3cc(OC)c(OC)c(OC)c3-c3ccc(SC)c(=O)cc32)c(OC)c1OC | – | 0.0804 µM | – | > 100 µM | < 0.01 µM | – | 0.375 µM | > 100 µM | – | – | – | – | – | – | 0.037 µM | > 100 µM | – | 19.1 µM | 77.2 µM | 0.0295 µM
19 | NC(=O)COc1ccc(Br)cc1Br | – | > 100 µM | – | > 100 µM | – | > 100 µM | – | > 100 µM | – | – | – | – | – | – | – | > 100 µM | – | – | > 100 µM | –
20 | BrCC[N+]12CCCN1CCC2 | – | > 66.2 µM | – | 2.44 µM | – | 12.9 µM | – | > 70.5 µM | – | – | – | – | – | 35.2 µM | – | 37.2 µM | – | 20.5 µM | 13.7 µM | –
21 | COc1ccc2nc(NC(=O)C(=O)C(C#N)c3ccc(CC#N)cc3)sc2c1 (stereo not given) | – | > 100 µM | – | > 100 µM | – | > 100 µM | – | > 100 µM | – | – | – | – | – | – | – | > 100 µM | – | > 100 µM | > 100 µM | –
22 | COc1cc2ccc(C(=O)O)cc2cc1OC | – | > 100 µM | – | – | – | – | – | > 100 µM | – | – | – | – | – | – | – | > 100 µM | – | > 100 µM | > 100 µM | –
23 | Cc1cccc2c1C(=O)OC2(c1cccc2ccccc12)c1cccc2ccccc12 | – | > 100 µM | – | > 100 µM | – | > 100 µM | – | > 100 µM | – | – | – | – | – | – | – | > 100 µM | – | > 100 µM | – | –
24 | Nc1ccc(Sc2ccc3c4c2cccc4c(=O)n2c4ccccc4nc32)cc1 | 3.67 µM | 57.9 µM | 1.82 µM | 8.48 µM | 3.71 µM | 12 µM | 4.34 µM | 17.2 µM | 12.6 µM | 82.2 µM | 5.95 µM | 62.8 µM | 3.87 µM | 33.4 µM | 11.8 µM | 43.5 µM | 2.48 µM | 16.1 µM | – | –
